Laboratory results from patent US8466311B2, “Neuroprotective compositions and methods” (Sanford-Burnham Medical Research Institute, priority 2006, dated 2013).

Experiments:
ARE = assay: ARE(GSTYa)-luciferase reporter in PC12h cells; assay type: cell-based
Description: (1) pGL3-GSTYa ARE core-luciferase vector. […] The dsDNA thus obtained was inserted into the Mlu l and Bglll sites of the pGL3-promoter vector (Promega Co., Madison, Wis.).
Transient transfection and measurement of luciferase activity. PC12h cells or cerebrocortical cultures (E17, DIV21) were incubated for 5 h in EBSS containing 1 μg of a plasmid DNA plus Lipofectamine 2000 (Invitrogen, Carlsbad, Calif.). Transfection efficiency was normalized to β-galactosidase activity expressed by co-transfection with pSV-β-gal (Promega). For reporter gene assays, cells were transfected with 1 μg of the reporter construct [ARE(GSTYa)-luciferase] and 0.2 μg pSV-β-gal for 1 hour. […] Firefly luciferase activity and β-galactosidase activity in cell lysates were measured using a Luciferase System and β-Galactosidase Enzyme Assay System, respectively (Promega, Madison, Wis.).
Next, we examined the involvement of the Keap1/Nrf2 pathway more precisely by studying activation of the ARE. This transcription element responds to the Keap1/Nrf2 pathway; we monitored activation of the ARE by performing luciferase reporter gene assays using PC12h cells transfected with ARE(GSTYa)-luciferase (Alam et al., J. Biol. Chem. 274:26071-26077, 1999) in the presence or absence of an Nrf2 dominant-negative (DN) or Keap1 expression vector.

HO-1 promoter = HO-1 promoter luciferase reporter in cortical cultures; assay type: cell-based, rat
Description: Next, transcriptional activation of the HO-1 promoter by NEPP was examined by reporter gene assays in primary neurons. Cortical cultures were transfected with reporter cDNAs (1 μg per well), and 0.7 μM NEPP11 was added to the cultures. After a 24 h incubation, cell lysates were subjected to luciferase reporter assays. […] If the Keap1/Nrf2 pathway, indeed, mediates activation of the HO-1 promoter by NEPP11, mutant Nrf2 protein should inhibit this activation. […] Moreover, the selective activation in neurons may explain the relatively small amplitude of total HO-1 activation seen in the mixed neuronal/glial culture system in which glia predominate.

[1] = tested on: thioredoxin and glutaredoxin; assay: Expression of Trx and Grx genes in cortical cultures (RT-PCR); assay type: cell-based, rat; set-up: expression of the Trx and Grx genes: dose or concentration left out as unconfirmed
Description: One caveat to the mechanism of NEPP and other electrophilic compounds acting at the level of Keap1 to induce HO-1 transcription is that NEPP could potentially react indiscriminately with other thiol-containing compounds in cells. To approach this question, we assessed cellular glutathione (GSH) levels to determine whether NEPP11 would affect this abundant antioxidant thiol. Nepp11 or N-ethylmaleimide (NEM) was added at t=0 and levels of total GSH were measured at the indicated times. GSH content of control cortical cultures (set arbitrarily at 100%) was 46.8±4.5 nmol/mg protein. […] In fact, this scenario seems likely, because the Keap1/Nrf2 pathway regulates the expression of γ-GCL in addition to HO-1 (Itoh et al., Mol. Cell. Biol. 24:36-45, 2004). Besides GSH, cells have another major reduction pathway representing the thioredoxin-glutaredoxin system.
Lack of Effect of NEPP Compounds on Expression of Trx and Grx Genes. […]

ETS-binding site = assay: Enhancer element luciferase reporter p3xETSluc; assay type: cell-based; settings: NEPP11 2 μM
Description: Because the E1 and E2 regions also contain other enhancer elements, we tested the effects of NEPP11 (2 μM) on the expression of luciferase activity derived from these elements, including the cAMP-responsive element (CRE; p3xCREluc), AP-1 binding site (p3xAP1luc), NF-κB binding site (p3xNF-κBluc), NFAT-binding site (p3xNFATluc), ETS-binding site (p3xETSluc), and MEF2-binding site (p3xMEF2luc).

HO-1 protein = assay: Induction of HO-1 protein in primary cortical cultures; assay type: cell-based, rat
Description: Immunoprecipitation, western blots, and immunofluorescence. These assays were performed as described (Gu et al., Science 297:1186-1190, 2002) by using the following antibodies: anti-HO-1 (SPA895, 1:1000, Santa Cruz Biotechnology), anti-Keap1 (1:100, Santa Cruz Biotechnology), or anti-actin (1:5,000, Oncogene Research Products, San Diego).
We reasoned that if, unlike other electrophiles (Kraft et al., J. Neurosci. 24:1101-1112, 2004), NEPPs accumulate predominantly in neurons, then HO-1 might be induced preferentially in this cell type. To check this possibility, we performed immunofluorescence studies with anti-HO-1 antibody after exposure to a potent NEPP compound. Cortical cultures (E17 and DIV14-21) treated with vehicle or NEPP11 (0.7 μM) were stained with anti-MAP-2 and anti-HO-1 and with Hoechst dye. In control cultures, non-neuronal cells expressed relatively more HO-1 at baseline than did neurons. […] To examine induction of HO-1 protein after exposure to NEPP, lysates (10 μg per lane) of primary cortical cultures treated with vehicle or NEPP11 for 24 h were probed with anti-HO-1 or anti-β-actin in immunoblots. […] The fold induction of HO-1 by NEPP11 was 2.2±0.25 (for 0.5 μM NEPP11) and 3.5±0.25 (for 1.0 μM NEPP11 as assessed by densitometry.
Cell Cultures, Transfection, and Glutathione (GSH) Measurement.

Structure (SMILES) | ARE activation with co-transfection of Nrf2-DN or Keap1 (ARE; PC12h cells, CA) | stimulation of ARE-based transcription (ARE; PC12h cells, CA 10 μM) [fold] | ARE activation relative to sulforaphane (ARE; equimolar basis, 20 h) | activity of the HO-1 promoter (HO-1 promoter; NEPP11 0.7 μM, 24 h) | HO-1 promoter activation with cotransfection of pNrf2(S40A)-GFP (HO-1 promoter; NEPP11, pNrf-GFP did not affect activation) | expression of thioredoxin or glutaredoxin ([1]; NEPP11 1 μM) | expression of the Trx and Grx genes ([1]; NEPP11, 24 hr, RT-PCR) | activity of p3xETSluc (ETS-binding site) | fold induction of HO-1 (densitometry) (HO-1 protein; 0.5 μM NEPP11, 24 h) [fold] | fold induction of HO-1 (densitometry) (HO-1 protein; 1.0 μM NEPP11, 24 h) [fold] | HO-1 immunofluorescence (HO-1 protein; NEPP11 0.7 μM, E17 DIV14-21)
CC(C)c1cc2c(c(O)c1O)[C@@]1(C(=O)O)CCCC(C)(C)[C@@H]1CC2 [CA, carnosic acid] | significantly repressed | > 10 | to a much greater extent than sulforaphane | – | – | – | – | – | – | – | –
COC(=O)CCCCC/C=C1/C(=O)C=C[C@H]1CCCCCCc1ccc(C)cc1 [NEPP11] | – | – | – | significantly increased | almost completely knocked down | did not significantly affect | did not significantly affect | slightly depressed | 2.2±0.25 | 3.5±0.25 | increased mainly in neurons
